From patent publication US11266622B2, “Method of treatment” (Vanda Pharmaceuticals Inc., priority 2014, dated 2022)

What was measured:
[1] = Metabolite formation following oral administration of tasimelteon; format: in vivo; conditions: humans
Mel1a (MT1R) = Mel1a (MT1R) (Homo sapiens, UniProt P48039); assay: Affinity (Ki) for melatonin receptor MT1R; format: binding
sleep parameters = conditions: cited from earlier work
Mel1b (MT2R) = biological target: T1, Mel1b (MT2R) (Homo sapiens, UniProt P49286); assay: Affinity (Ki) for melatonin receptor MT2R; format: binding
T1 sequence (P49286 1-362): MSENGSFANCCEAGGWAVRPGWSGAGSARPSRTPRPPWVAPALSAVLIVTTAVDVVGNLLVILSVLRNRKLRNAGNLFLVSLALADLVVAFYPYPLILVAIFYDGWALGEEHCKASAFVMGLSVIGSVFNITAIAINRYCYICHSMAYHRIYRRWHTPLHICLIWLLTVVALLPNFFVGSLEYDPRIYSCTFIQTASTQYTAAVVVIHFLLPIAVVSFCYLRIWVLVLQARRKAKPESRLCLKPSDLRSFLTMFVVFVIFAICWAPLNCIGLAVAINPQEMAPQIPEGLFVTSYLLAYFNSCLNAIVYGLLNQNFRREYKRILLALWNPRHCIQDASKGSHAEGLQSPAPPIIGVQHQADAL

[2] = Solubility of tasimelteon in solvents and water; format: physicochemical

Chain of Mel1a (MT1R) (P48039 whole entry): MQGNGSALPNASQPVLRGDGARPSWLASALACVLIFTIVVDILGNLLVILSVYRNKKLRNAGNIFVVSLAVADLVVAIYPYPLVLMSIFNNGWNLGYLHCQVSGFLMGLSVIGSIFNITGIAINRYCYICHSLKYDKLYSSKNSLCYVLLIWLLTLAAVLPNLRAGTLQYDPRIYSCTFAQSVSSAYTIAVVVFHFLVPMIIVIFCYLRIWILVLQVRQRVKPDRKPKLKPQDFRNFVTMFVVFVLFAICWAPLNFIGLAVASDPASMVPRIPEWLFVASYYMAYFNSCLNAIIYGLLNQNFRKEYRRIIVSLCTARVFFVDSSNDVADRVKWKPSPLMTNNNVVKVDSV

SMILES | formation as metabolite [1] | Ki (Mel1a (MT1R)) | effect on sleep parameters (sleep parameters; prior clinical studies, simulated desynchronization of the circadian clock) | tolerability profile (sleep parameters; studied in hundreds of individuals) | Ki (Mel1b (MT2R)) | greater affinity for MT2R relative to MT1R (Mel1b (MT2R); MT2R relative to MT1R) | solubility in organic solvents ([2]; 95% ethanol, methanol, acetonitrile, ethyl acetate, isopropanol, polyethylene glycols (PEG-300 and PEG-400)) | effect of pH on aqueous solubility ([2]; aqueous) | native pH of a saturated solution in water ([2]; saturated solution in water) | solubility in water ([2]; water)
CCC(=O)NC[C@@H]1C[C@H]1c1cccc(O)c1CC(=O)O [M9] | formed in humans | – | – | – | – | – | – | – | – | –
CCC(=O)NC[C@@H]1C[C@H]1c1cccc2c1CCO2 (relative stereo) [Tasimelteon, trans-N-[[2-(2,3-dihydrobenzofuran-4-yl)cycloprop-1yl]methyl]propanamide] | – | 0.3 to 0.4 nM | shown to improve sleep parameters | good tolerability profile | 0.1 to 0.2 nM | 2-4 times | very soluble or freely soluble | practically unaffected by pH | 8.5 | only slightly soluble
CCC(=O)NC[C@@H]1C[C@H]1c1cccc(O)c1CCO [M11] | formed in humans | – | – | – | – | – | – | – | – | –
